Experimental data published in ChEMBL document CHEMBL3868620, “Synthesis, DNA binding and antitrypanosomal activity of benzimidazole analogues of DAPI” (Bioorg Med Chem Lett, 2016).
pIC50: −log10 of the molar value.

Key:
[1] = Selectivity index, ratio OF IC50 for rat L6 cells to IC50 for bloodstream form of Trypanosoma brucei rhodesiense STIB900; type: functional
[2] = Binding affinity to poly(dA-dT)n DNA (unknown origin) assessed as change in melting temperature at 0.3 molar ratio of compound:DNA by spectrophotometric analysis
[3] = tested on: Trypanosoma brucei rhodesiense; assay: Antitrypanosomal activity against bloodstream form of Trypanosoma brucei rhodesiense STIB900 after 70 hrs by Alamar blue assay; type: functional; conditions: STIB900, 70 h
[4] = Cytotoxicity against rat L6 cells assessed as reduction in cell viability after 70 hrs by Alamar blue assay; type: toxicity

ΔTm [2]	pIC50 [3]	SMILES	Ratio IC50 [1]	IC50 at 70 h [4]
26 °C	7.17	c1cc2nc(-c3ccc(C4=NCCN4)s3)[nH]c2cc1C1=NCCN1	1925	129000 nM
10.1 °C	7.32	N=C(N)c1ccc2nc(-c3ccc(C(=N)N)o3)[nH]c2c1	3229	150000 nM
25.2 °C	7.72	N=C(N)c1ccc2nc(-c3ccc(C(=N)N)s3)[nH]c2c1	1405	26700 nM

Second part, the compound before the results:

SMILES	ΔTm [2]	pIC50 [3]	Ratio IC50 [1]	IC50 at 70 h [4]
CCCn1c(-c2ccc(C(=N)N)cc2)nc2cc(C(=N)N)ccc21	2.5 °C	7.51	>4419	> 137000 nM
N=C(N)c1ccc(-c2nc3ccc(C(=N)N)cc3n2O)cc1	1.1 °C	5.07	>25	> 210000 nM
N=C(N)c1ccc(-c2cc3ccc(C(=N)N)cc3[nH]2)cc1 [DAPI]	> 27 °C		48	860 nM
N=C(N)c1ccc(-c2nc3cc(C(=N)N)ccc3[nH]2)cc1	24.7 °C	7.51	848	26300 nM
N=C(N)c1ccc(-c2nc3cc(C(=N)N)ccc3n2C2CCCCC2)cc1	2 °C	6.28	>306	> 162000 nM
Cn1c(-c2ccc(C(=N)N)cc2)nc2cc(C(=N)N)ccc21	8 °C	7.82	>11266	> 169000 nM
CCn1c(-c2ccc(C(=N)N)cc2)nc2cc(C(=N)N)ccc21	5.5 °C	7.19	>3234	> 207000 nM
